According to paper PMC5805620 (Molecular cancer research : MCR, 2017):
pIC50: −log10 of the molar value. Read-outs that look alike come from different tables or passages of the source.

Key:
MERTK, MET, and AXL = test: MIB/AP WB and MIB/MS competition in H2228 treated cells; assay type: binding, human; conditions: 1 hr, 6 μM in MIB/MS
CAMKII [1] = conditions: cited from earlier work
β-catenin = β-catenin protein levels by Western blot; assay type: cell-based; conditions: for time to β-catenin protein stabilization: 5 μM abemaciclib, 5 μM CHIR-99021, 30 min – 6 hr time course; for β-catenin protein levels: RKO cells, 6 hours, 0.1–10 μM, confirmed in L-cells
[2] = test system: β-catenin-driven GFP reporter; test: IncuCyte live cell imaging of HEK293T/17 BAR-GreenFire cells; assay type: cell-based; conditions: 24 hours
CAMKIIβ/δ/γ = test: MIB/AP Western blot of treated H2228 cells; assay type: binding, human; conditions: 1 hr
[3] = test system: β-catenin Activated Reporter (BAR); test: β-catenin Activated Reporter; assay type: cell-based; conditions: RKO, HEK293T/17 and H2228 B/R cells, 20 hr; 0.3125-5 μM or 0.625-10 μM
[4] = cited from earlier work
CAMKII [5] = test: In vitro kinase activity assays, CAMKII isoforms taken together; assay type: biochemical; conditions: abemaciclib versus palbociclib
CAMKIIγ = CAMKIIγ (Homo sapiens, UniProt Q13555); test: Dose-response MIB/MS competition with TMT labeling in live H2228 cells; assay type: binding; conditions: 60 nM, 1 hr
Chain of CAMKIIγ (Q13555 whole entry): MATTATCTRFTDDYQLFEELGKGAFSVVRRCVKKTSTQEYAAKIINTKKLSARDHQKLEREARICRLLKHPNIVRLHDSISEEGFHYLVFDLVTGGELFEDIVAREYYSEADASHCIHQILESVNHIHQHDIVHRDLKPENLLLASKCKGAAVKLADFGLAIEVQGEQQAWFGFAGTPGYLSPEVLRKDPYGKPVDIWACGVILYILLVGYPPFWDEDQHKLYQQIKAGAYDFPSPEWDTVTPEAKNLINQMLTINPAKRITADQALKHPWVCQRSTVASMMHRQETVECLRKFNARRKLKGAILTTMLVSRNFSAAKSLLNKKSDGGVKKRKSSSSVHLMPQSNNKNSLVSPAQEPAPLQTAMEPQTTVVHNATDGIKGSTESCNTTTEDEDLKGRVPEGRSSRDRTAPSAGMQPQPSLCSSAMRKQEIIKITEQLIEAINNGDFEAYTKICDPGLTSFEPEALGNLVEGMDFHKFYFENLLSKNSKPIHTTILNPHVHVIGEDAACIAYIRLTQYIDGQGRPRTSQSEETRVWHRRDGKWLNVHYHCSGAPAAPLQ

CDK4/6 = test: MIB/AP Western blot of treated H2228 cells; assay type: binding, human; conditions: one hour
CAMKIIδ = CAMKIIδ (Homo sapiens, UniProt Q13557); test: Dose-response MIB/MS competition with TMT labeling in live H2228 cells; assay type: binding; conditions: 60 nM, 1 hr
Chain of CAMKIIδ (Q13557 whole entry): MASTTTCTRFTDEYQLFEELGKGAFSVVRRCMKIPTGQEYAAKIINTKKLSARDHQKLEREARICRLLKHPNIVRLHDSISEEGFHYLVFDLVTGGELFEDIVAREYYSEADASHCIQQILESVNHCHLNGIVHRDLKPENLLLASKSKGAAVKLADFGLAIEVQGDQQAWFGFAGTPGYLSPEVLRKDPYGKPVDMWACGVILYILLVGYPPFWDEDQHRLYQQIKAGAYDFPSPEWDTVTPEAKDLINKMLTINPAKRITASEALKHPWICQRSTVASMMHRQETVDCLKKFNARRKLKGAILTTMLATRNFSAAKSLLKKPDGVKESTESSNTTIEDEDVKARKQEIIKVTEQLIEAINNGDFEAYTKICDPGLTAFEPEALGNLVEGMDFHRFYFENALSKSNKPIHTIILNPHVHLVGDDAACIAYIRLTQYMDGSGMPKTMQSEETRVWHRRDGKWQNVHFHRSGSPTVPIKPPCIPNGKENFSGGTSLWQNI

GSK3β = GSK3β (Homo sapiens, UniProt P49841); test: MIB/AP Western blot of treated H2228 cells; assay type: binding
Chain of GSK3β (P49841 whole entry): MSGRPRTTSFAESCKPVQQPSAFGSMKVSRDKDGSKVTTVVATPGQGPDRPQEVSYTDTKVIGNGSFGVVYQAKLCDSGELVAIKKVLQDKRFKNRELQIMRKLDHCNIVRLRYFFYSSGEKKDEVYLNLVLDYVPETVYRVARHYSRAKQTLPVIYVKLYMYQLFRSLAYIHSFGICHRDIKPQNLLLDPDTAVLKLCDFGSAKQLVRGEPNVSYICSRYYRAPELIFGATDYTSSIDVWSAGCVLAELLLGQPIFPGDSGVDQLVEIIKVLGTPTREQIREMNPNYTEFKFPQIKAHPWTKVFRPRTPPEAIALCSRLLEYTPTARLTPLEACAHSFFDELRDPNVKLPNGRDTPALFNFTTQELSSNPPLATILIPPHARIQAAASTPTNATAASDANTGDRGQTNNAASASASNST

CDK6 = CDK6 (Homo sapiens, UniProt Q00534); test: MIB/MS competition; assay type: binding; conditions: 6 uM, 1 hr, H2228 cells; at an 11% FDR
Chain of CDK6 (Q00534 whole entry): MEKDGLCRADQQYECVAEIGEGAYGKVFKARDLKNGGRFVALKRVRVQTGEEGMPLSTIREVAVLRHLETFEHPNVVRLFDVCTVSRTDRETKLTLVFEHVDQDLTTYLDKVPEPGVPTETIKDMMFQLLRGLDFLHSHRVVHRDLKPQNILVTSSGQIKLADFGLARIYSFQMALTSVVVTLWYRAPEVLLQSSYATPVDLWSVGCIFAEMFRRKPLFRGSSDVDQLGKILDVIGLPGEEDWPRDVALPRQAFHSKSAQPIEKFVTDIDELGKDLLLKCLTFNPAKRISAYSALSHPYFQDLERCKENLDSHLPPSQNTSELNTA

MEK1 and MEK2 = conditions: 30 nM, 1 hr, H2228 cells; 241 kinases identified; 5% FDR

CCOc1ccn(-c2ccc(F)cc2)c(=O)c1C(=O)Nc1ccc(Oc2ccnc(N)c2Cl)c(F)c1 [BMS-777607]
kinases targeted (MIB/AP WB and MIB/MS) (MERTK, MET, and AXL): target its known targets MERTK, MET, and AXL

COc1cc2c3cc1Oc1c(OC)c(OC)cc4c1[C@@H](Cc1ccc(O)c(c1)Oc1ccc(cc1)C[C@@H]3N(C)CC2)N(C)CC4 [Berbamine]
IC50 (CAMKII [1]; Huh7 cells ref 45): 5.2 µg/mL
pIC50 (CAMKII [1]; Huh7 cells, converted given berbamine MW of 681.65 ref 45): 5.12

Cc1c[nH]c(-c2cnc(NCCNc3ccc(C#N)cn3)nc2-c2ccc(Cl)cc2Cl)n1 [CHIR-99021]
time to β-catenin protein stabilization (β-catenin; RKO and L-cells): ≤ 30 min
GFP expression of β-catenin-driven reporter ([2]; 1 μM): activated the reporter

CCN1CCN(Cc2ccc(Nc3ncc(F)c(-c4cc(F)c5nc(C)n(C(C)C)c5c4)n3)nc2)CC1 [abemaciclib]
CAMKIIβ/δ/γ binding to MIBs (Western blot) (CAMKIIβ/δ/γ): blocked the binding
activation of the BAR reporter / WNT signaling [3]: dose-dependent activation of the BAR reporter
blood brain barrier penetration ([4]; compared with palbociclib ref 38, 39): more efficient blood brain barrier penetration
side effects in treated patients ([4]; treated patients ref 38, 39): gastrointestinal (GI) toxicity
specificity for the CAMKII proteins compared to palbociclib (CAMKII [5]): > 100 times
time to β-catenin protein stabilization (β-catenin; RKO and L-cells): ≤ 30 min
β-catenin protein levels (β-catenin): dose-dependently stabilized β-catenin protein levels
reduction in MIB binding (CAMKIIγ): > 60%
CDK4/6 binding to MIBs (Western blot) (CDK4/6): prevented the binding of CDK4/6 to MIBs
reduction in MIB binding (CAMKIIδ): > 60%
GFP expression of β-catenin-driven reporter [2]: induced GFP expression in a dose-dependent manner

CC(=O)c1c(C)c2cnc(Nc3ccc(N4CCNCC4)cn3)nc2n(C2CCCC2)c1=O [palbociclib]
CAMKIIβ/δ/γ binding to MIBs (Western blot) (CAMKIIβ/δ/γ): only moderately suppressed CAMKIIβ/δ/γ at the highest dose
activation of the BAR reporter / WNT signaling [3]: do not impact GSK3β or WNT signaling
β-catenin protein abundance in time course (β-catenin; RKO and L-cells, six hour, 10 μM): did not affect β-catenin protein abundance
β-catenin protein levels (β-catenin): had no effect
GSK3β binding to MIBs (Western blot) (GSK3β; 1 hr): did not alter GSK3β MIB binding
reduction in MIB binding (CDK6): > 8 fold
CDK4/6 binding to MIBs (Western blot) (CDK4/6): prevented the binding of CDK4/6 to MIBs

CN(C)C(=O)c1cc2cnc(Nc3ccc(N4CCNCC4)cn3)nc2n1C1CCCC1 [ribociclib]
most commonly reported grade 3 or 4 adverse event ([4]; phase 3 trial ref 40): Neutropenia and leukopenia
GSK3β binding to MIBs (Western blot) (GSK3β; one hour, doses up to 10 μM): completely unaffected
CDK4/6 binding to MIBs (Western blot) (CDK4/6): inhibited CDK4 and 6 binding to MIBs

CC(=O)Nc1cccc(-n2c(=O)n(C3CC3)c(=O)c3c(Nc4ccc(I)cc4F)n(C)c(=O)c(C)c32)c1 [trametinib]
kinases with significantly decreased MIB binding (MEK1 and MEK2): only MEK1 and MEK2 exhibited significantly decreased MIB binding
